Data set [1] deals with T1, Alpha-ketoglutarate-dependent dioxygenase FTO (Homo sapiens, UniProt Q9C0B1). The experiment in a line: Inhibition of His-tagged N-terminal FTO (unknown origin).
Data set [2] deals with T2, Cytochrome P450 2C9 (Homo sapiens, UniProt P11712). The experiment in a line: Inhibition of CYP2C9 in human liver microsome by Liquid chromatography-tandem mass spectrometric analysis. In general terms: Liver microsomes are vesicles of endoplasmic reticulum, rich in cytochrome P450 enzymes.
T2 sequence (P11712 whole entry): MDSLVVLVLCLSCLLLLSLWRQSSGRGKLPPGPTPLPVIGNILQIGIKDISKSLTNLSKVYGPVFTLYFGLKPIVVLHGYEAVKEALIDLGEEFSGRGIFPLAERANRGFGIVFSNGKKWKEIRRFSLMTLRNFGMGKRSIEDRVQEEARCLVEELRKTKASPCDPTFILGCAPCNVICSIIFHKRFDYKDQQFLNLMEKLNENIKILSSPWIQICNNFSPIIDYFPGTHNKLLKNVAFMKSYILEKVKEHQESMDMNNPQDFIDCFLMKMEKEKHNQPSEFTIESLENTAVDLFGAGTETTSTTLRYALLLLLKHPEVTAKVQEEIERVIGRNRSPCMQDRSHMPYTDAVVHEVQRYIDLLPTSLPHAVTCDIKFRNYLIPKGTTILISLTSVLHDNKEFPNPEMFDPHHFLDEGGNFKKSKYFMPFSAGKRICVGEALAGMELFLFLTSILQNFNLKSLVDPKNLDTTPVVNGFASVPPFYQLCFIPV
In the next data set the target is Cytochrome P450 2C19 (Homo sapiens, UniProt P33261). As to the kind of experiment: Inhibition of recombinant CYP2C19 in human liver microsome by Liquid chromatography-tandem mass spectrometric analysis.
Cytochrome P450 2C19, sequence (P33261 whole entry): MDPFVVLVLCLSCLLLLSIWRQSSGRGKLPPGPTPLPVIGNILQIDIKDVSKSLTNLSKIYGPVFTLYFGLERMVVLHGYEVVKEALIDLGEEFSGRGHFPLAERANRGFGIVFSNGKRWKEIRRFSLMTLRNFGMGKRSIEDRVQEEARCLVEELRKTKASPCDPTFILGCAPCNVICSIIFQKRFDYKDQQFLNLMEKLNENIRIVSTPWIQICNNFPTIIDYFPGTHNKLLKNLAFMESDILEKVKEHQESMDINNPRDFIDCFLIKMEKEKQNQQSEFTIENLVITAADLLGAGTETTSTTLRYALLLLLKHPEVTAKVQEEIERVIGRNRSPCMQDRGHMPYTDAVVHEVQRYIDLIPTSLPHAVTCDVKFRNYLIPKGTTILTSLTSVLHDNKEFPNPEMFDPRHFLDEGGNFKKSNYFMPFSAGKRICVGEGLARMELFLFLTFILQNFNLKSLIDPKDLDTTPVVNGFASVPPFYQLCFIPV
Data set [3] can be described thus: in vivo. As to conditions: male, Sprague-Dawley, rat, po, 10 mg/kg.
Description: Cmax in male Sprague-Dawley rat at 10 mg/kg, po measured up to 24 hrs by HPLC analysis
Data set [4] can be described thus: in vivo. As to conditions: male, Sprague-Dawley, rat, po, 10 mg/kg. This is another data set of the same source.
Description: AUC (0 to infinity) in male Sprague-Dawley rat at 10 mg/kg, po measured up to 24 hrs by HPLC analysis
The nature of data set [5]: Binding affinity to GFP-tagged FTO Glu234 mutant (unknown origin) assessed as dissociation constant by microscale thermophoresis analysis. A general note: MST reads how a fluorescent partner responds to local heating, with and without ligand.
Data set [6] is described as follows: in vitro. The note with it: human, liver microsomes.
Description: Metabolic stability in human liver microsomes assessed as hepatic clearance at 1 uM by HPLC analysis
Data set [7] can be described thus: Half-life in male Sprague-Dawley rat at 10 mg/kg, po measured up to 24 hrs by HPLC analysis. As to conditions: in vivo.
Data set [8] concerns the target T1, Alpha-ketoglutarate-dependent dioxygenase FTO. As to the kind of experiment: Binding affinity to GFP-tagged FTO (unknown origin) assessed as dissociation constant by microscale thermophoresis analysis.
Data set [9] in a line: in vitro. The note with it: human, liver microsomes. This is another data set of the same source.
Description: Metabolic stability in human liver microsome assessed as half-life at 1 uM by HPLC analysis
Data set [10] is described as follows: in vitro. The note with it: human, liver microsomes. This is another data set of the same source.
Description: Metabolic stability in human liver microsomes assessed as intrinsic clearance per mg protein at 1 uM by HPLC analysis
Data set [11] in a line: in vivo. The note with it: male, Sprague-Dawley, rat, po, 10 mg/kg. The source holds these as a separate data set.
Description: Oral bioavailability in male Sprague-Dawley rat at 10 mg/kg measured up to 24 hrs by HPLC analysis
Data set [12] can be described thus: MRT in male Sprague-Dawley rat at 10 mg/kg, po measured up to 24 hrs by HPLC analysis. As to conditions: in vivo.
Data set [13] has as its target T1, Alpha-ketoglutarate-dependent dioxygenase FTO. The experiment in a line: Binding affinity to GFP-tagged FTO (unknown origin) assessed as dissociation constant by SPR analysis. (SPR reads the build-up and loss of mass on a sensor chip optically.)
Data set [14] in a line: in vivo. The note with it: male, Sprague-Dawley, rat, iv, 5 mg/kg.
Description: Cmax in male Sprague-Dawley rat at 5 mg/kg, iv measured up to 8 hrs by HPLC analysis
Data set [15] can be described thus: MRT in male Sprague-Dawley rat at 5 mg/kg, iv measured up to 8 hrs by HPLC analysis. The note with it: in vivo.
Data set [16] is described as follows: in vivo. As to conditions: male, Sprague-Dawley, rat, iv, 5 mg/kg. The source holds these as a separate data set.
Description: AUC (0 to infinity) in male Sprague-Dawley rat at 5 mg/kg, iv measured up to 8 hrs by HPLC analysis
The next data set addresses CYP3A4/5 (Homo sapiens, UniProt P08684+P20815). The experiment in a line: Inhibition of recombinant CYP3A4/5 in human liver microsome by Liquid chromatography-tandem mass spectrometric analysis. The note with it: recombinant CYP3A4/5 in human liver microsomes.
Data set [17] in a line: in vitro. The note with it: rat, liver microsomes.
Description: Metabolic stability in rat liver microsome assessed as half-life at 1 uM by HPLC analysis
Data set [18] is described as follows: in vitro. As to conditions: rat, liver microsomes. The source holds these as a separate data set.
Description: Metabolic stability in rat liver microsomes assessed as intrinsic clearance per mg protein at 1 uM by HPLC analysis
A further data set addresses Cytochrome P450 2D6 (Homo sapiens, UniProt P10635). The experiment in a line: Inhibition of recombinant CYP2D6 in human liver microsome by Liquid chromatography-tandem mass spectrometric analysis.
A short description of data set [19]: Binding affinity to GFP-tagged FTO Asp233 mutant (unknown origin) assessed as dissociation constant by microscale thermophoresis analysis.
A short description of data set [20]: in vitro. The note with it: rat, liver microsomes. This is another data set of the same source.
Description: Metabolic stability in rat liver microsomes assessed as hepatic clearance at 1 uM by HPLC analysis
Data set [21] in a line: Binding affinity to GFP-tagged FTO (Ser229) mutant (unknown origin) assessed as dissociation constant by microscale thermophoresis analysis.
Data set [22] can be described thus: Binding affinity to GFP-tagged FTO Arg96 mutant (unknown origin) assessed as dissociation constant by microscale thermophoresis analysis.
Data set [23] is described as follows: Binding affinity to GFP-tagged FTO Tyr108 mutant (unknown origin) assessed as dissociation constant by microscale thermophoresis analysis.
The nature of data set [24]: Half-life in male Sprague-Dawley rat at 5 mg/kg, iv measured up to 8 hrs by HPLC analysis. As to conditions: in vivo.
The target in data set [25] is T2, Cytochrome P450 2C9. The experiment in a line: Inhibition of recombinant CYP2C9 in human liver microsome by Liquid chromatography-tandem mass spectrometric analysis.
Data set [26] can be described thus: in vivo. The note with it: male, Sprague-Dawley, rat, po, 10 mg/kg. This is another data set of the same source.
Description: Tmax in male Sprague-Dawley rat at 10 mg/kg, po measured up to 24 hrs by HPLC analysis

Each structure is given as a SMILES string.

T1 sequence (Q9C0B1 whole entry): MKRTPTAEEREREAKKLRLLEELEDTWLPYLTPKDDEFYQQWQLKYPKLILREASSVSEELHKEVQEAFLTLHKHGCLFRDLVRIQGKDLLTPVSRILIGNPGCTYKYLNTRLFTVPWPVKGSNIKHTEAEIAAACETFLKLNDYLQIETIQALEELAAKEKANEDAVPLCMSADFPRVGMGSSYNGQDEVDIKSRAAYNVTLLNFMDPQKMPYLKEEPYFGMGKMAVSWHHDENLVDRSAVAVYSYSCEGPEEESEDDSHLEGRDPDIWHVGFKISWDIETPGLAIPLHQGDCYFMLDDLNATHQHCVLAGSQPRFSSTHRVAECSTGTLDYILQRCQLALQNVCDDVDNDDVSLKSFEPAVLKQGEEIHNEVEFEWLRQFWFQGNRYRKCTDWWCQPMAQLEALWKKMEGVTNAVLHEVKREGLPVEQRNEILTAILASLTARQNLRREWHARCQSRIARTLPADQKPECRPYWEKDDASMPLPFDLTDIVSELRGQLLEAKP
Cytochrome P450 2D6, sequence (P10635 whole entry): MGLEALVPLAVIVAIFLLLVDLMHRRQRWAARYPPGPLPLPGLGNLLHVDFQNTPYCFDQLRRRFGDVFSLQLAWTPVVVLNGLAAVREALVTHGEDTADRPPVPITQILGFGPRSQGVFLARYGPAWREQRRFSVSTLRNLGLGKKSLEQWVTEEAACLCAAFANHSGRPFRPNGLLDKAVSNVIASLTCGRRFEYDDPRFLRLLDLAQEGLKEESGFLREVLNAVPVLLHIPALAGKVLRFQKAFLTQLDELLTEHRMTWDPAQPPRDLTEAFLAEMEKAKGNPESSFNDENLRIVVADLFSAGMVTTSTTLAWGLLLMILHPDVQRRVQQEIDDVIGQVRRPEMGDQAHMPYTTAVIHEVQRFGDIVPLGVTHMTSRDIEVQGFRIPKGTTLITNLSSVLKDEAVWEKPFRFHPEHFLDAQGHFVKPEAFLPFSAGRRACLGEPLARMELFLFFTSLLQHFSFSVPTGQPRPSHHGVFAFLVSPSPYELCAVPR

The IC50 is the concentration that inhibits the measured activity by half. `O=c1cc(-c2ccc(O)c(O)c2)oc2ccccc12` came in with an IC50 in data set [1] of 5.7 µM.
The same measure, in the same setting: to `O=c1cc(-c2cc(O)c(O)c(O)c2)oc2cc(O)cc(O)c12` [TRICETIN] belongs 7.7 µM; to `O=c1ccoc2ccccc12` [CHROMONE], 89.8 µM.
Same read-out and setting: under `O=c1c(O)c(-c2ccc(O)cc2O)oc2cc(O)cc(O)c12` [MORIN] stands 13.9 µM; under `O=c1c(O)c(-c2ccccc2)oc2cc(O)cc(O)c12` [GALANGIN], 19.1 µM; under `O=c1cc(-c2ccc(O)cc2)oc2cc(O)c(O)c(O)c12` [SCUTELLAREIN], 15.6 µM.
Same read-out and setting: under `O=c1c(O)c(-c2ccc(O)cc2)oc2cc(O)cc(O)c12` [KAEMPFEROL] stands 17.6 µM; under `O=c1ccoc2cc(O)ccc12`, 16.2 µM.
Consider `CCN(CC)C(=O)/C(C#N)=C/c1cc(O)c(O)c([N+](=O)[O-])c1` [ENTACAPONE], for which the IC50 on Cytochrome P450 2C9 [2] worked out at 4 µM.
On to `O=c1c(O)c(-c2ccc(O)c(O)c2)oc2cc(O)cc(O)c12` [QUERCETIN], for which the midpoint of inhibition in data set [1], the IC50, lay at 9.5 µM.
Compound `O=c1cc(-c2ccccc2)oc2cc(O)ccc12` [7-HYDROXYFLAVONE] registered an IC50 in [1] of 17.9 µM.
`O=c1cc(-c2ccccc2)oc2cccc(O)c12` [5-HYDROXYFLAVONE] yielded an IC50 in data set [1] of 19.2 µM.
As usually defined, the Cmax is the highest concentration seen after dosing. Broadly, the AUC(0-inf) is total exposure, with the tail of the curve extrapolated. Lower therefore signals less exposure. Broadly, the Kd is the free concentration of one partner at which half of the binding sites on the other are occupied at equilibrium, for simple one-to-one binding. The term half-life denotes the time in which the quantity being followed falls by half. A high value points to slow loss. For orientation: microsomal CLint means the rate of metabolic loss divided by the concentration. Low readings indicate greater metabolic stability, high ones faster metabolism. As a reminder, the bioavailability is the share of a dose that reaches the circulation, judged against a reference dose that is usually intravenous. A higher bioavailability goes with good availability. As usually defined, the MRT is the average time that molecules of a dose stay in the body. By Tmax is commonly meant the time from dosing to the highest level. In the case of `O=C1C[C@@H](c2ccc(O)c(O)c2)Oc2cc(O)cc(O)c21` [ERIODICTYOL], the 50% inhibitory concentration (IC50) on Cytochrome P450 2C19 is 44 µM; in [1], 3.5 µM; on CYP3A4/5, more than 50 µM; on Cytochrome P450 2D6, more than 50 µM; at Cytochrome P450 2C9 [25] it was more than 50 µM. Besides, in “in vivo [3]”, the Cmax at 24 h stood at 472 ng/mL. Also, the AUC(0-inf) at 24 h in the data set “in vivo [4]” is 559 ng·h/mL. The Kd in data set [5] is 186 µM; in data set [8], 2.8 µM; in data set [13], 3.24 µM; in data set [19], 109 µM; in data set [21] it was 170 µM; in data set [22], 257 µM. For the same compound, the Kd in [23] came to 47.6 µM. In addition, the results for the CLhep predicted at 1 µM in “in vitro [6]” and in the data set “in vitro [20]” were less than 6.1 mL/min/kg and 37.9 mL/min/kg, respectively. The compound also showed a half-life at 24 h in data set [7] of 3.35 h. Besides, the values for the half-life at 1 µM in “in vitro [9]” and in the data set “in vitro [17]” were more than 3.11 h and 0.345 h, respectively. The intrinsic metabolic clearance (microsomal CLint) at 1 µM in the data set “in vitro [10]” is less than 7.4 µL/min/mg; in “in vitro [18]”, 67.2 µL/min/mg. The compound further showed a bioavailability at 24 h in “in vivo [11]” of 29.9%. This compound gave an MRT at 24 h in data set [12] of 1.89 h. In “in vivo [14]”, this compound returned a peak concentration (Cmax) at 8 h of 1830 ng/mL. Also, the mean residence time MRT at 8 h in data set [15] is 0.828 h. This compound had an AUC(0-inf) at 8 h in the data set “in vivo [16]” of 932 ng·h/mL. In data set [24], this compound showed a half-life at 8 h of 1.63 h. In addition, in “in vivo [26]”, the time of peak concentration (Tmax) at 24 h is 0.5 h.
`O=c1cc(-c2ccccc2)oc2cc(O)c(O)c(O)c12` [BAICALEIN] registered an IC50 in [1] of 17.1 µM.
On the same count and under the same terms, to `O=c1c(O)c(-c2ccc(O)cc2)oc2ccccc12` belongs 18.5 µM; to `COc1ccc(-c2oc3cc(O)cc(O)c3c(=O)c2O)cc1` [KAEMPFERIDE], 18.2 µM; to `O=c1cc(-c2cc(O)c(O)c(O)c2)oc2ccccc12`, 13.9 µM.
Consider `O=c1c(O)c(-c2ccc(O)c(O)c2)oc2cc(O)ccc12` [FISETIN], for which inhibition in data set [1] was half-maximal at 9.2 µM (IC50).
With `O=c1cc(-c2ccccc2)oc2ccc(O)cc12` [6-HYDROXYFLAVONE], the concentration for half-maximal inhibition (IC50) in data set [1] is 17.8 µM.
For the compound `O=c1c(O)c(-c2cc(O)c(O)c(O)c2)oc2cc(O)cc(O)c12` [MYRICETIN], in data set [8], the dissociation constant Kd turned out to be 34 µM. Also, the IC50 in data set [1] worked out at 9.6 µM.
`O=c1cc(-c2ccc(O)cc2)oc2cc(O)cc(O)c12` [APIGENIN] gave an IC50 in data set [1] of 12.1 µM.
In the case of `O=c1cc(-c2ccc(O)c(O)c2)oc2cc(O)cc(O)c12` [LUTEOLIN], half-maximal inhibition in [1] (IC50) required 7.5 µM.

The values above are taken from ChEMBL document CHEMBL6109136, “Discovery of the 2,3-Dihydrobenzopyrane-4-one as a Potent FTO Inhibitor against Obesity-Related Metabolic Diseases” (J Med Chem, 2025).
